Measured values reported in patent publication US20260374766A1, “METHODS FOR TREATING CANCER” (Antares Therapeutics, Inc., priority 2022, published 2026).

Experiments:
[1] = target: T1, p53 Y220C mutant protein (amino acid residues 94-293) (Homo sapiens, UniProt P04637, Y220C); experiment: Surface Plasmon Resonance (SPR) assay, Kd_kinetic; assay type: binding; settings: SPR; p53 Y220C; read-out: SPR P53 Y220C KD kinetic
T1 construct: p53 Y220C mutant protein (amino acid residues 94-293)
Outline: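 Biacore 8K SPR; 16 or 20 °C; Tris 50 mM pH 7.5, NaCl 100 mM, DTT 1 mM, Brij35 0.01%, Tween-20 0.05%, DMSO 1%. Kd_kinetic by 1:1 fit.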

[2] = target: T1, p53 Y220C mutant protein (amino acid residues 94-293); experiment: Thermal Shift Assay (TSA), dTM; assay type: binding; settings: p53 Y220C, read-out: TSA P53 Y220C dTM; for ΔTm at 10 µM: 10 uM compound; for ΔTm at 100 µM: 100 uM compound
Outline: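 Differential scanning fluorimetry with Sypro Orange on 5 μM p53 Y220C residues 94-293, compound tested at 10 μM or 100 μM after 3 hours at 20 °C; buffer 20 mM HEPES, pH7.4, 100 mM NaCl, 1% DMSO.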

[3] = target: p53 Y220C (Homo sapiens, UniProt P04637, Y220C); experiment: Luciferase Reporter Assay (Luc), p53 response element, NClH1299 cells with inducible p53 Y220C; assay type: cell-based; settings: luciferase reporter, NClH1299 inducible p53 Y220C, 6 hour; for AC50: read-out: Luc P53 Y220C AC50
Outline: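 24 h dox pre-induction (0.5 ug/mL), then 6 h compound; One-Glo luminescent read.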

[4] = tested on: NUGC3 p53 Y220C; experiment: Cell Proliferation Assay (CellTiter-Glo, CTG), NUGC3 p53 Y220C; assay type: cell-based; settings: Homo sapiens, NUGC-3, 120 h, NUGC3 cells, 5 days, CellTiter-Glo
Outline: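 Tet-One inducible p53 Y220C or R273H constructs were stably introduced into NCI-H1299 by lentiviral transduction; NUGC3 was used as is. Cells (250-500 per well) were exposed to compound for 5 days, then CellTiter-Glo was added for 10 min at room temperature and IC50 was calculated from luminescence.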

[5] = tested on: H1299 p53 Y220C; experiment: Cell Proliferation Assay (CellTiter-Glo, CTG), H1299 p53 Y220C (NClH1299-inducible p53 Y220C); assay type: cell-based; settings: Homo sapiens, NCI-H1299, 120 h, NClH1299-inducible p53 Y220C cells, 5 days, CellTiter-Glo
Outline: (§1)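 NClH1299 lines stably transduced with Tet-inducible p53 Y220C or R273H, plus NUGC3, were treated with compound for 5 days at 250-500 cells/well. IC50 derived from CellTiter-Glo luminescent signal after 10 min room-temperature incubation.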

[6] = tested on: H1299 p53 R273H; experiment: Cell Proliferation Assay (CellTiter-Glo, CTG), H1299 p53 R273H (NClH1299-inducible p53 R273H); assay type: cell-based; settings: Homo sapiens, NCI-H1299, 120 h, NClH1299-inducible p53 R273H cells, 5 days, CellTiter-Glo
Outline: as §1

In the case of `COc1cc2c[nH]nc2cc1NCC#Cc1nc2c(N[C@@H]3CCN(C)C[C@@H]3F)cccn2c1SC(F)(F)F` [Example 308, N-[3-(8-{[(3S,4R)-3-fluoro-1-methylpiperidin-4-yl]amino}-3-[(trifluoromethyl)sulfanyl]imidazo[1,2-a]pyridin-2-yl)prop-2-yn-1-yl]-5-methoxy-2H-indazol-6-amine], the Kd [1] is reported as < 10 nM, the ΔTm at 10 µM [2] is reported as ≥ 10 °C and the ΔTm at 100 µM [2] is reported as ≥ 10 °C. For the same molecule, the AC50 [3] was < 750 nM, the Emax [3] was 80 to 90% and the IC50 [4] was < 750 nM. For the same molecule, the IC50 [5] was < 750 nM and the IC50 [6] was < 5000 nM.
`CCNC(=O)c1ccc(OC)c(NCC#Cc2nc3c(N[C@@H]4CCN(C)C[C@@H]4F)nccn3c2SC(F)(F)F)c1` [Example 309] was tested, and the Kd [1] was < 10 nM, the ΔTm at 10 µM [2] was ≥ 10 °C and the AC50 [3] was < 750 nM. For the same molecule, the Emax [3] was 70 to 80%, the IC50 [4] was < 750 nM and the IC50 [5] was < 750 nM. For the same molecule, the IC50 [6] was < 5000 nM.
In the case of `CNC(=O)c1ccc(Cl)c(NCC#Cc2nc3c(N[C@@H]4CCN(C)C[C@@H]4F)cccn3c2SC(F)(F)F)c1` [Example 312], the Kd [1] is reported as < 10 nM, the ΔTm at 10 µM [2] is reported as ≥ 10 °C and the AC50 [3] is reported as < 750 nM. For the same molecule, the Emax [3] was > 90%, the IC50 [4] was < 750 nM and the IC50 [5] was < 750 nM. For the same molecule, the IC50 [6] was 5000 to 8000 nM.
In the case of `CCNC(=O)c1ccc(NCC#Cc2nn3c(N[C@@H]4CCN(C)C[C@@H]4F)cccc3c2SC(F)F)c(OC)c1` [Example 317], the Kd [1] is reported as < 10 nM, the ΔTm at 10 µM [2] is reported as ≥ 10 °C and the AC50 [3] is reported as < 750 nM. The Emax [3] was 80 to 90%, the IC50 [4] was < 750 nM and the IC50 [5] was < 750 nM. The IC50 [6] was ≥ 10000 nM.
With `CCNC(=O)c1ccc(OC)c(NCC#Cc2nn3c(N[C@@H]4CCN(C)C[C@@H]4F)cccc3c2SC(F)F)c1` [Example 318] the Kd [1] was < 10 nM, the ΔTm at 10 µM [2] was ≥ 10 °C and the AC50 [3] was < 750 nM. The Emax [3] was 80 to 90%, the IC50 [4] was < 750 nM and the IC50 [5] was < 750 nM. For the same molecule, the IC50 [6] was 5000 to 8000 nM.
In the case of `CNC(=O)c1ccc(NCC#Cc2nc3c(N[C@@H]4CCNC[C@@H]4F)nccn3c2SC(F)(F)F)c(OC)c1` [Example 319], the Kd [1] is reported as < 10 nM, the ΔTm at 10 µM [2] is reported as ≥ 10 °C and the AC50 [3] is reported as < 750 nM. The Emax [3] was > 90%, the IC50 [4] was < 750 nM and the IC50 [5] was < 750 nM. For the same molecule, the IC50 [6] was ≥ 10000 nM.
With `CNC(=O)c1ccc(OC)c(NCC#Cc2cc3c(N[C@@H]4CCN(C)C[C@@H]4F)nccn3c2SC(F)F)c1` [Example 321] the Kd [1] was < 10 nM, the ΔTm at 10 µM [2] was ≥ 10 °C and the AC50 [3] was < 750 nM. The Emax [3] was > 90%, the IC50 [4] was < 750 nM and the IC50 [5] was < 750 nM. For the same molecule, the IC50 [6] was ≥ 10000 nM.
In the case of `CNC(=O)c1ccc(NCC#Cc2nc3c(N[C@@H]4C[C@H]5CC[C@H](N5)[C@@H]4F)cccn3c2SC(F)(F)F)c(OC)c1` [Example 324, 4-{[3-(8-{[(1S,2S,3R,5R)-2-fluoro-8-azabicyclo[3.2.1]octan-3-yl]amino}-3-[(trifluoromethyl)sulfanyl]imidazo[1,2-a]pyridin-2-yl)prop-2-yn-1-yl]amino}-3-methoxy-N-methylbenzamide], the Kd [1] is reported as < 10 nM, the ΔTm at 10 µM [2] is reported as ≥ 10 °C and the ΔTm at 100 µM [2] is reported as ≥ 10 °C. The AC50 [3] was < 750 nM, the Emax [3] was 80 to 90% and the IC50 [4] was < 750 nM. The IC50 [5] was < 750 nM and the IC50 [6] was 5000 to 8000 nM.
With `CNC(=O)c1cnc(OC)c(NCC#Cc2cc3c(N[C@@H]4CCN(C)C[C@@H]4F)nccn3c2SC(F)F)c1` [Example 327] the Kd [1] was < 10 nM, the ΔTm at 10 µM [2] was ≥ 10 °C and the AC50 [3] was < 750 nM. The Emax [3] was > 90%, the IC50 [4] was < 750 nM and the IC50 [5] was < 750 nM. The IC50 [6] was ≥ 10000 nM.
With `CNC(=O)c1ccc(OC2COC2)c(NCC#Cc2cc3c(N[C@@H]4CCN(C)C[C@@H]4F)nccn3c2SC(F)(F)F)c1` [Example 336] the Kd [1] was < 10 nM, the ΔTm at 10 µM [2] was ≥ 10 °C and the AC50 [3] was < 750 nM. For the same molecule, the Emax [3] was > 90%, the IC50 [4] was < 750 nM and the IC50 [5] was < 750 nM. The IC50 [6] was < 5000 nM.
`CNC(=O)c1cnc(OC)c(NCC#Cc2cc3c(N[C@@H]4CN(C)C[C@@H]4F)cccn3c2SC(F)(F)F)c1` [Example 338] was tested, and the Kd [1] was < 10 nM, the ΔTm at 10 µM [2] was ≥ 10 °C and the AC50 [3] was < 750 nM. For the same molecule, the Emax [3] was > 90%, the IC50 [4] was < 750 nM and the IC50 [5] was < 750 nM. It also gave an IC50 [6] of 5000 to 8000 nM.
`COc1cc(S(C)(=O)=O)ccc1NCC#Cc1cc2c(N[C@@H]3CN(C)C[C@@H]3F)cccn2c1SC(F)(F)F` [Example 339] was tested, and the Kd [1] was < 10 nM, the ΔTm at 10 µM [2] was ≥ 10 °C and the AC50 [3] was < 750 nM. For the same molecule, the Emax [3] was 80 to 90%, the IC50 [4] was < 750 nM and the IC50 [5] was < 750 nM. The IC50 [6] was 5000 to 8000 nM.
